Source: patent US7855165B2, “Herbicide composition for paddy field” (Bayer Cropscience AG, priority 2007, dated 2010)

How the values were obtained:
[1] = test system: Sagittaria pygmaea Miq; experiment: Test Example 1: effect of the herbicide composition against paddy field weeds (pot test, green house); assay type: in vivo; details: 3 weeks after treatment
Excerpt: (§1) • Component (a) (a-1): compound No. 1 (ref: the aforementioned Table A) • (a-2): compound No. 3 (same as above) • (a-3): compound No. 11 (same as above) • Component (b) the aforementioned (b-1)-(b-15) • Component (c) the aforementioned (c-1)-(c-3) <Preparation of Test Agents> • Carrier: Acetone 5 parts by weight • Surfactant: Benzyloxy polyglycol ether 1 part by weight The above-mentioned carrier and surfactant and 1 part by weight of active compounds (component (a) and component (b) or component (c)) are mixed and the obtained formulations are diluted with water to prepare the test agents of the prescribed chemicals amount (preparations).
(§2) In a green house, seeds or tubers of Monochoria vaginalis Presl, annual broad-leaves (Lindernia procumbens Philcox, Rotala indica Koehne, Elatine triandra Schk, Ammannia multiflora Roxb., etc.), Cyperus serotinus Rottboel, and Sagittaria pygmaea Miq were inoculated to paddy field soil filled in a 500 cm^2 pot and brought to a submerged condition of about 2-3 cm. At 1.5-2 leafstage of each weed prescribed diluted solution of preparation of each active compound and each herbicide in the following table was applied on water surface each singly or simultaneously. After the treatment, the submerged condition of 3 cm was maintained and the herbicidal effect was studied 3 weeks after the treatment. The herbicidal effect was evaluated as 100% in case of complete death and 0% in case of no effect.
(§3) In the tables, MOOVP represents Monochoria vaginalis Presl, BBBBB represents annual broad-leaves, CYPSE represents Cyperus serotinus Rottboel and SAGPY represents Sagittaria pygmaea Miq.

[2] = test system: Monochoria vaginalis Presl; experiment: as above; assay type: in vivo; details: 3 weeks after treatment
Excerpt: as §1, §2, §3

[3] = test system: Cyperus serotinus Rottboel; experiment: as above; assay type: in vivo; details: 3 weeks after treatment
Excerpt: as §1, §2, §3

[4] = test system: annual broad-leaves (Lindernia procumbens Philcox, Rotala indica Koehne, Elatine triandra Schk, Ammannia multiflora Roxb., etc.); experiment: as above; assay type: in vivo; details: 3 weeks after treatment
Excerpt: as §2, with “At 1.5-2 leafstage of each weed prescribed diluted solution of preparation of each active compound and each herbicide in the following table was applied on water surface each singly or simultaneously.” left out
as §3

[5] = as above; assay type: in vivo, annual broad-leaves; details: 504 h, read-out: Herbicidal effect (%) BBBBB
Excerpt: as §2, with “At 1.5-2 leafstage of each weed prescribed diluted solution of preparation of each active compound and each herbicide in the following table was applied on water surface each singly or simultaneously.” left out
as §3

[6] = test system: paddy rice; experiment: Test Example 2: test of effect of phytotoxicity reduction; assay type: in vivo; details: 2 weeks after treatment
Excerpt: as §1
In a green house, paddy rice of 2-2.5 leafstage was transplanted to paddy field soil filled in a 1000 cm^2 pot to 2 cm depth and brought to a submerged condition of about 2-3 cm. Five days after the transplantation, prescribed diluted solution of preparation of each active compound and each herbicide in the following table was applied on water surface each singly or simultaneously. After the treatment, the submerged condition of 3 cm was maintained and the grade of phytotoxicity to paddy rice was studied 2 weeks after the treatment. The phytotoxicity was evaluated as 100% in case of complete death and 0% in case of no phytotoxicity.

**Q.** What does the source list for `C#CCN(C)c1c(C#N)cnn1-c1nn2c(c1Cl)CCCC2` [(b-6), pyraclonil]?
**A.** Herbicidal effect (%) SAGPY ([1]; 50 g/ha single): 50%; Herbicidal effect (%) SAGPY ([1]; 100 g/ha single): 85%; Herbicidal effect (%) MOOVP ([2]; 50 g/ha single): 80%; Herbicidal effect (%) MOOVP ([2]; 100 g/ha single): 90%; Herbicidal effect (%) CYPSE ([3]; 50 g/ha single): 20%; Herbicidal effect (%) CYPSE ([3]; 100 g/ha single): 30%; Herbicidal effect (%) BBBBB ([4]; 50 g/ha single): 90%; Herbicidal effect (%) BBBBB ([4]; 100 g/ha single): 90%

**Q.** With `CCOc1ccccc1OS(=O)(=O)NC(=O)Nc1nc(OC)cc(OC)n1` [(b-13), ethoxysulfuron] as the molecule, how does the pest or weed control at 1.5 g/ha ([1]; Sagittaria pygmaea, 504 h, 1.5 g/ha single, read-out: Herbicidal effect (%) SAGPY) read?
**A.** 65%

**Q.** What about the pest or weed control at 3 g/ha ([1]; Sagittaria pygmaea, 504 h, 3 g/ha single, read-out: Herbicidal effect (%) SAGPY) of the same molecule?
**A.** 65%

**Q.** And the pest or weed control at 1.5 g/ha ([2]; Pontederia vaginalis, 504 h, 1.5 g/ha single, read-out: Herbicidal effect (%) MOOVP)?
**A.** 65%

**Q.** And the pest or weed control at 3 g/ha ([2]; Pontederia vaginalis, 504 h, 3 g/ha single, read-out: Herbicidal effect (%) MOOVP)?
**A.** 70%

**Q.** And the pest or weed control at 1.5 g/ha ([3]; Cyperus serotinus, 504 h, 1.5 g/ha single, read-out: Herbicidal effect (%) CYPSE)?
**A.** 0%

**Q.** And the pest or weed control at 3 g/ha ([3]; Cyperus serotinus, 504 h, 3 g/ha single, read-out: Herbicidal effect (%) CYPSE)?
**A.** 0%

**Q.** And the pest or weed control at 1.5 g/ha ([5]; 1.5 g/ha single, 3 weeks after treatment)?
**A.** 40%

**Q.** And the pest or weed control at 3 g/ha ([5]; 3 g/ha single, 3 weeks after treatment)?
**A.** 70%

**Q.** Which results are given for `CC(C)(NC(=O)C(Br)C(C)(C)C)c1ccccc1` (centres unmarked) [(b-14), bromobutide]?
**A.** pest or weed control at 200 g/ha ([1]; Sagittaria pygmaea, 504 h, 200 g/ha single, read-out: Herbicidal effect (%) SAGPY): 10%; pest or weed control at 400 g/ha ([1]; Sagittaria pygmaea, 504 h, 400 g/ha single, read-out: Herbicidal effect (%) SAGPY): 10%; pest or weed control at 200 g/ha ([2]; Pontederia vaginalis, 504 h, 200 g/ha single, read-out: Herbicidal effect (%) MOOVP): 30%; pest or weed control at 400 g/ha ([2]; Pontederia vaginalis, 504 h, 400 g/ha single, read-out: Herbicidal effect (%) MOOVP): 95%; pest or weed control at 200 g/ha ([3]; Cyperus serotinus, 504 h, 200 g/ha single, read-out: Herbicidal effect (%) CYPSE): 40%; pest or weed control at 400 g/ha ([3]; Cyperus serotinus, 504 h, 400 g/ha single, read-out: Herbicidal effect (%) CYPSE): 60%; pest or weed control at 200 g/ha [5]: 20%; pest or weed control at 400 g/ha [5]: 30%

**Q.** Which pest or weed control at 75 g/ha ([1]; Sagittaria pygmaea, 504 h, 75 g/ha single, read-out: Herbicidal effect (%) SAGPY) does the source give for `CS(=O)(=O)c1ccc(C(=O)C2C(=O)CCCC2=O)c(Cl)c1COCC1CCCO1` (centres unmarked) [(b-15), 2-{2-chloro-4-mesyl-3-[(tetrahydrofuran-2-ylmethoxy)-methyl]-benzoyl}-cyclohexan-1,3-dione] here?
**A.** 80%

**Q.** And the pest or weed control at 150 g/ha ([1]; Sagittaria pygmaea, 504 h, 150 g/ha single, read-out: Herbicidal effect (%) SAGPY)?
**A.** 80%

**Q.** And the pest or weed control at 75 g/ha ([2]; Pontederia vaginalis, 504 h, 75 g/ha single, read-out: Herbicidal effect (%) MOOVP)?
**A.** 85%

**Q.** What about the pest or weed control at 150 g/ha ([2]; Pontederia vaginalis, 504 h, 150 g/ha single, read-out: Herbicidal effect (%) MOOVP) of the same molecule?
**A.** 95%

**Q.** And the pest or weed control at 75 g/ha ([3]; Cyperus serotinus, 504 h, 75 g/ha single, read-out: Herbicidal effect (%) CYPSE)?
**A.** 80%

**Q.** What about the pest or weed control at 150 g/ha ([3]; Cyperus serotinus, 504 h, 150 g/ha single, read-out: Herbicidal effect (%) CYPSE) of the same molecule?
**A.** 85%

**Q.** What about the pest or weed control at 75 g/ha ([5]; 75 g/ha single, 3 weeks after treatment) of the same molecule?
**A.** 50%

**Q.** What about the pest or weed control at 150 g/ha ([5]; 150 g/ha single, 3 weeks after treatment) of the same molecule?
**A.** 65%

**Q.** For `Cc1ccc(NC(=O)NC(C)(C)c2ccccc2)cc1` [(c-1), dymron], which Phytotoxicity % ([6]; 450 g/ha single) is on record?
**A.** 0%

**Q.** For `CCOC(=O)C1=NN(c2ccc(Cl)cc2Cl)C(C)(C(=O)OCC)C1` (centres unmarked) [(c-2), mefenpyr-diethyl], which Phytotoxicity % ([6]; 500 g/ha single) is on record?
**A.** 0%

**Q.** For `O=C(O)C1=NOC(c2ccccc2)(c2ccccc2)C1` [(c-3), isoxadifen], which Phytotoxicity % ([6]; 500 g/ha single) is on record?
**A.** 0%
